Measured values published in patent publication US8580752B2, “Aromatic amides as potentiators of bioefficacy of anti-infective drugs” (priority 2005, dated 2013).
Values after ≈ are worked out from the molar mass of the structure shown. Like-named read-outs stand apart in the source and are kept apart here.

Tests used:
Gm −ve bacteria = assay: microbe, parasite or virus in culture; type: cell-based, Gram negative
M. tb = assay: MIC of anti infective drugs alone and with potentiators; type: cell-based, Mycobacterium tuberculosis; conditions: for MIC Drug + potentiator: Ciprofloxacin + potentiator; for % decrease in MIC: Ciprofloxacin + potentiator vs drug alone
Gm +ve bacteria = assay: microbe, parasite or virus in culture; type: cell-based, Gram positive
MRSA = assay: MIC by checkerboard method, comparison with piperine; type: cell-based, Staphylococcus aureus; conditions: Tables 5A/5B; for MIC: Staphylococcus aureus
S epidermidis ATCC 12228 = assay: MIC by checkerboard method; type: cell-based; conditions: Ciprofloxacin alone, read-out: MIC Ciprofloxacin
[1] = system: Staphylococcus aureus ATCC 29213; assay: Systemic infection model of mice; type: in vivo, Swiss albino mice; conditions: ATCC29213, iv, read-out: ED50 for ciprofloxacin
Description: The study was conducted to see the in vivo response of ciprofloxacin in combination with the above-mentioned potentiator. The Swiss albino mice were infected intravenously with Staphylococcus aureus ATCC 29213 (10^7 CFU/mouse). The infected mice were divided in groups and each group consisted of 6 mice. The treatment consisted of one dose i.e. 5 or 10 or 20 mg/kg immediately after the infection followed by the next dose after a gap of 6 hrs. The result was recorded as number of survivals each day.

B cereus RRL 101 = assay: MIC by checkerboard method; type: cell-based; conditions: Ciprofloxacin alone, read-out: MIC Ciprofloxacin
MRSA 33 = assay: MIC by checkerboard method; type: cell-based; conditions: Staphylococcus aureus; Ciprofloxacin alone; S aureus MRSA 33; read-out: MIC Ciprofloxacin
MRSA 450 = assay: MIC by checkerboard method; type: cell-based; conditions: Staphylococcus aureus; Ciprofloxacin alone; S aureus MRSA 450; read-out: MIC Ciprofloxacin
S aureus ATCC 29213 = assay: MIC by checkerboard method; type: cell-based, Staphylococcus aureus; conditions: for MIC: Staphylococcus aureus; for MIC Amikacin / MIC Ciprofloxacin: Tables 5A/5B
M. tuberculosis H37Rv = assay: MIC by checkerboard method; type: cell-based, Mycobacterium tuberculosis; conditions: Tables 5A/5B, M tuberculosis H37Rv
[2] = with the labelled potentiator +6.25 μg/ml
[3] = with the labelled potentiator +12.5 μg/ml
[4] = with the labelled potentiator +25.0 μg/ml
[5] = with the labelled potentiator +50.0 μg/ml

## CC(/C=C/C(=O)NC(C)c1ccc(Br)cc1)=C\c1ccc2c(c1)OCO2 (centres unmarked) [5-(3,4-methylenedioxyphenyl)-4-methyl-2E,4E-pentadienoic acid-1-(4-bromophenyl)ethylamide]
Gm −ve bacteria
  % decrease in MIC: 0-50%
  MIC Drug + potentiator: 0.03 to 0.25 µg/mL
M. tb
  MIC Drug + potentiator: 0.25 to 0.5 µg/mL
  % decrease in MIC: 50%
Gm +ve bacteria
  % decrease in MIC: 50-76%
  MIC Drug + potentiator: 0.06 to 8 µg/mL

## O=C(O)c1cn(C2CC2)c2cc(N3CCNCC3)c(F)cc2c1=O [Ciprofloxacin, reference compound]
MRSA; Ciprofloxacin alone, read-out: MIC Ciprofloxacin
  MIC: 32 µg/mL
Gm −ve bacteria; read-out: MIC Drug alone
  MIC: 0.03 to 0.5 µg/mL (≈ 0.0905 to 1.51 µM)
S epidermidis ATCC 12228
  MIC: 0.12 µg/mL
[1]
  ED50: 9.2 mg/kg
B cereus RRL 101
  MIC: 0.12 µg/mL
MRSA 33
  MIC: 32 µg/mL
MRSA 450
  MIC: 32 µg/mL
M. tb; Mycobacterium tuberculosis, drug alone
  MIC: 0.5 to 1 µg/mL
S aureus ATCC 29213; ATCC29213, Ciprofloxacin alone, read-out: MIC Ciprofloxacin
  MIC: 0.25 µg/mL
S aureus ATCC 29213; ATCC29213, Tables 5A/5B, Ciprofloxacin alone, read-out: MIC Ciprofloxacin
  MIC: 0.25 µg/mL

## CCC(/C=C/C(=O)N1CCCCC1)=C\c1ccc(OC)c(OC)c1 [4-ethyl-5-(3,4-dimethoxyphenyl)-2E,4E-pentadienoic acid piperidide]
Gm −ve bacteria
  % decrease in MIC: 0-50%
  MIC Drug + potentiator: 0.03 to 0.25 µg/mL
M. tb
  MIC Drug + potentiator: 0.25 to 0.5 µg/mL
  % decrease in MIC: 50%
Gm +ve bacteria
  % decrease in MIC: 50-76%
  MIC Drug + potentiator: 0.06 to 8 µg/mL

## O=C(/C=C/C=C/c1ccc2c(c1)OCO2)N1CCCCC1 [Piperine, reference compound]
MRSA; with the labelled potentiator +6.25 μg/ml, read-out: MIC Mupirocin
  MIC: 0.12 µg/mL
MRSA; with the labelled potentiator +12.5 μg/ml, read-out: MIC Mupirocin
  MIC: 0.12 µg/mL
MRSA; with the labelled potentiator +25.0 μg/ml, read-out: MIC Mupirocin
  MIC: 0.06 µg/mL
MRSA; with the labelled potentiator +50.0 μg/ml, read-out: MIC Mupirocin
  MIC: 0.06 µg/mL
MRSA; [2]
  MIC Amikacin: 4.0 µg/mL
  MIC Ciprofloxacin: 32 µg/mL
MRSA; [3]
  MIC Amikacin: 4.0 µg/mL
  MIC Ciprofloxacin: 32 µg/mL
MRSA; [4]
  MIC Amikacin: 4.0 µg/mL
  MIC Ciprofloxacin: 32 µg/mL
MRSA; [5]
  MIC Amikacin: 4.0 µg/mL
  MIC Ciprofloxacin: 16 µg/mL
M. tuberculosis H37Rv; [2]
  MIC Rifampicin: 0.12 µg/mL
M. tuberculosis H37Rv; [3]
  MIC Rifampicin: 0.06 µg/mL
M. tuberculosis H37Rv; [4]
  MIC Rifampicin: 0.06 µg/mL
S aureus ATCC 29213; ATCC29213, Tables 5A/5B, with the labelled potentiator +6.25 μg/ml, read-out: MIC Mupirocin
  MIC: 0.12 µg/mL
S aureus ATCC 29213; ATCC29213, Tables 5A/5B, with the labelled potentiator +12.5 μg/ml, read-out: MIC Mupirocin
  MIC: 0.12 µg/mL
S aureus ATCC 29213; ATCC29213, Tables 5A/5B, with the labelled potentiator +25.0 μg/ml, read-out: MIC Mupirocin
  MIC: 0.06 µg/mL
S aureus ATCC 29213; ATCC29213, Tables 5A/5B, with the labelled potentiator +50.0 μg/ml, read-out: MIC Mupirocin
  MIC: 0.06 µg/mL
S aureus ATCC 29213; [2]
  MIC Amikacin: 2.0 µg/mL
  MIC Ciprofloxacin: 0.25 µg/mL
S aureus ATCC 29213; [3]
  MIC Amikacin: 1.0 µg/mL
  MIC Ciprofloxacin: 0.25 µg/mL
S aureus ATCC 29213; [4]
  MIC Amikacin: 0.5 µg/mL
  MIC Ciprofloxacin: 0.12 µg/mL
S aureus ATCC 29213; [5]
  MIC Amikacin: 0.25 µg/mL
  MIC Ciprofloxacin: 0.12 µg/mL

## CCC(/C=C/C(=O)N1CCC(O)CC1)=C\c1ccc2c(c1)OCO2 [5-(3,4-methylenedioxyphenyl)-4-ethyl-2E,4E-pentadienoic acid-4-hydroxypiperidide]
Gm +ve bacteria
  % decrease in MIC: 0-50%
  MIC Drug + potentiator: 0.03 to 0.25 µg/mL

## CCCCC(/C=C/C(=O)N1CCCCC1)=C\c1ccc2c(c1)OCO2 [5-(3,4-methylenedioxyphenyl)-4-n-butyl-2E,4E-pentadienoic acid piperidide]
Gm −ve bacteria
  % decrease in MIC: 0-50%
  MIC Drug + potentiator: 0.03 to 0.25 µg/mL
M. tb
  MIC Drug + potentiator: 0.25 to 0.5 µg/mL
  % decrease in MIC: 50%
Gm +ve bacteria
  % decrease in MIC: 50-76%
  MIC Drug + potentiator: 0.06 to 8 µg/mL

## CCN(CC)C(=O)/C=C/C(C)=C/c1ccc2c(c1)OCO2 [Formula 1a, R = CH3, do, R5 = R6 = C2H5, 5-(3,4-methylenedioxyphenyl)-4-methyl-2E,4E-pentadienoic acid-N,N-diethylamide]
Gm +ve bacteria
  % decrease in MIC: 50-76%
  MIC Drug + potentiator: 0.06 to 0.12 µg/mL
